Laboratory results taken from patent US9206186B2, “2-phenoxy- and 2-phenylsulfonamide derivatives with CCR3 antagonistic activity for the treatment of inflammatory or immunological disorders” (AXIKIN PHARMACEUTICALS, INC., priority 2003, dated 2015).
Where a name gives a salt, the structure may show the parent alone.

What was measured:
[1] = target: T1, Human CCR3 (Homo sapiens, UniProt P51677); test: Calcium mobilization assay (Ca2+), eotaxin-stimulated human CCR3-transformed K562 cells; format: cell-based; details: compounds of about 40 to 90% purity, read-out: Activity grade IC50
T1 construct: The cloned CCR3 cDNA was constructed with pcDNA3 vector and transfected into a K562 cell line; expressed in transfected cells
T1 sequence (P51677 1-355): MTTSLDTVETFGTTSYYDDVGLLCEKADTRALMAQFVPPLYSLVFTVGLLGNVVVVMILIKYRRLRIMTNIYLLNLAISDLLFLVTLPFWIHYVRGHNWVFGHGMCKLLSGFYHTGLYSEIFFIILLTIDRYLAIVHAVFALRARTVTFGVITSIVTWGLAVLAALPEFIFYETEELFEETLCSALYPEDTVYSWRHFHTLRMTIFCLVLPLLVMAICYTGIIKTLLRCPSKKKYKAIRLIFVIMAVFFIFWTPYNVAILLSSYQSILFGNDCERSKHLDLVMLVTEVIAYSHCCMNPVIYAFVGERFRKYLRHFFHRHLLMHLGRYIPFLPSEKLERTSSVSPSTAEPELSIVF
Method: • Human CCR3-transformed K562 cells were used. The cloned CCR3 cDNA was constructed with pcDNA3 vector and transfected into a K562 cell line. The human CCR3-transformed K562 cells were maintained in RPMI-1640 (Cat.#22400-089, Life Technologies) supplemented with 10% FCS (Cat.#A-1115-L, Hyclone), 55 μM 2-mercaptoethanol (Cat.#21985-023, Life Technologies), 1 mM sodium pyruvate (Cat.#11360-070, Life Technologies), 100 units/ml of penicillin G and 100 μg/ml of streptomycin (Cat.#15140-122, Life Technologies), and 0.4 mg/ml of Geneticin (Cat.#10131-035, Life Technologies) (hereinafter called “culture medium”). Before the receptor binding assay, cells were pretreated with 5 mM sodium butyrate (Cat.#193-01522, Wako)-containing the culture medium (2×10^5 cells/ml) for 20-24 hours to increase the expression of CCR3. (2) Receptor Binding Assay • Butyrate-pretreated cells, suspended in binding buffer (25 mM HEPES pH 7.6, 1 mM CaCl2, 5 mM MgCl2, 0.5% BSA, 0.1% NaN3) at a cell density of 2×10^6 cells/ml, were added into 60 μl/well in the 96-well round bottom polypropylene plate (Cat.#3365, Costar). Compounds, diluted with the binding buffer (4-times higher concentration of the final concentration), were added into 30 μl/well in the polypropylene plate. [^125I]-labeled human eotaxin (Cat.#IM290, Amersham Pharmacia Biotech), diluted with the binding buffer at the concentration of 0.4 nM (final concentration; 0.1 nM), was added into 30 μl/well in the polypropylene plate. Total 120 μl/well of binding reaction mixture (60 μl/well of cell suspension, 30 μl/well of compound solution, and 30 μl/well of [^125I]-labeled eotaxin) were incubated in the polypropylene plate for 1 hour at room temperature after the incubation, 100 μl/well of the reaction mixture was transferred to a filtration plate (Cat.#MAFB-N0B, Millipore), and washed with the washing buffer (25 mM HEPES pH 7.6, 1 mM CaCl2, 5 mM MgCl2, 0.5% BSA, 0.1% NaN3, 0.5 M NaCl) twice. The 96-well filtration plate was pretreated with 100 μl/well of 0.5% polyethylenimine (Cat.#P-3143, Sigma) for 2-4 hours at room temperature and washed with the washing buffer twice before use. The non-specific binding was determined by parallel incubation in the presence of 500 nM of non-labeled eotaxin (Cat.#23209, Genzyme Techne). The radioactivities remained on the filter were measured by liquid scintillation counter (TopCount™, Packard) after an addition of 45 μl/well of scintillant (Microscint20, Cat.#6013621, Packard). The inhibition percent at each concentration of compound was calculated, and IC50 values were determined from the inhibition curve. [Determination of IC50 Values of Compounds in Calcium Mobilization Assay] (1) Cell • Human CCR3-transformed K562 cells were used. The human CCR3-transformed K562 cells were maintained in RPMI-1640 supplemented with 10% FCS, 55 μM 2-mercaptoethanol (Cat.#21985-023, Life Technologies), 1 mM sodium pyruvate, 100 units/ml of penicillin G and 100 μg/ml of streptomycin, and 0.4 mg/ml of Geneticin. Before the calcium mobilization assay, cells were pretreated with 5 mM sodium butyrate-containing the culture medium (2×10^5 cells/ml) for 20-24 hours to increase the expression of CCR3. (2) Calcium Mobilization Assay • Butyrate-pretreated cells were loaded with Fluo-3AM (Cat.#F-1242, Molecular Probes) in loading buffer (Hanks' solution Cat.#05906 Nissui, 20 mM HEPES pH 7.6, 0.1% BSA, 1 mM probenecid Cat.#P-8761 Sigma, 1 μM Fluo-3AM, 0.01% pluronic F-127 Cat.#P-6866 Molecular Probes) at a cell density of 1×10^7 cells/ml. Then, cells were washed with calcium assay buffer (Hanks' solution Cat.#05906 Nissui, 20 mM HEPES pH 7.6, 0.1% BSA, 1 mM Probenecid Cat.#P-8761 Sigma). The cell suspension (3.3×10^6 cells/ml) was added into 60 μl/well in the 96-well clear bottom black plate (Cat.#3904, Costar). Compounds, diluted (5-times concentration of the final concentration) with the calcium assay buffer, were added into 20 μl/well in the plate 10 minutes before assay. […]

melting point | IC50 [1] [nM] | Compound
– | > 500 | O=S(=O)(c1cc(-n2cnnn2)ccc1Oc1cc(Cl)cc(Cl)c1)N1CCNCC1 [Example 1-30]
220 to 226 °C (dec.) | – | Cl.N#Cc1ccc(Oc2cc(Cl)cc(Cl)c2)c(S(=O)(=O)C2CCNCC2)c1 [Example 1-47]
220 to 226 °C (dec.) | – | N#Cc1ccc(Oc2cc(Cl)cc(Cl)c2)c(S(=O)(=O)C2CCNCC2)c1 (as salt: hydrochloride) [Example 2-1, 4-(3,5-Dichloro-phenoxy)-3-(piperidine-4-sulfonyl)-benzonitrile]
190 °C | > 500 | CN(C)CC(NS(=O)(=O)c1cc(C#N)ccc1Oc1cc(Cl)cc(Cl)c1)C(=O)O (stereo not drawn) [Example 1-40]
– | > 500 | N#Cc1ccc(Oc2cc(Cl)cc(Cl)c2)c(S(=O)(=O)NC2CN(Cc3ccccc3)CCN(Cc3ccccc3)C2)c1 [Example 1-41]

Further lines, the compound ahead of its results:

Compound | melting point | IC50 [1] [nM]
O=[N+]([O-])c1ccc(Sc2cc(Cl)cc(Cl)c2)c(S(=O)(=O)N[C@H]2CN3CCC2CC3)c1 (stereo in doubt) | 256 °C | –
N#Cc1ccc(Oc2cc(Cl)cc(Cl)c2)c(S(=O)(=O)N(CCN2C(=O)CCC2=O)[C@H]2CN3CCC2CC3)c1 [Example 1-38] | – | > 500
CC(C)(C)[Si](C)(C)O[C@H]1CN(C2CCN(S(=O)(=O)c3cc(C#N)ccc3Oc3cc(Cl)cc(Cl)c3)CC2)C[C@@H]1O [Example 1-14] | – | 100 to 500
N#Cc1ccc(Oc2cc(Cl)cc(Cl)c2)c(S(=O)(=O)N2CC[C@H](N(CCO)CCO)C2)c1 [Example 1-15] | 153 to 154 °C | 100 to 500
CN(C)CCN(C)CCN(C)S(=O)(=O)c1cc(C#N)ccc1Oc1cc(Cl)cc(Cl)c1 [Example 1-23] | – | 100 to 500
N#Cc1ccc(Oc2cc(Cl)cc(Cl)c2)c(S(=O)(=O)N[C@@H]2CC3OC3C[C@@H]2N)c1 (stereo partly drawn) [Example 1-17] | 165 to 182 °C (dec.) | > 500
COC(=O)C1CN(C2CCNCC2)CCCN1S(=O)(=O)c1cc(C#N)ccc1Oc1cc(Cl)cc(Cl)c1 (stereo not drawn) [Example 1-25] | – | 100 to 500
N#Cc1ccc(Oc2cc(Cl)cc(Cl)c2)c(S(=O)(=O)NC2CCCCNC2=O)c1 (stereo not drawn) [Example 1-24] | 172 to 173 °C | 100 to 500
Cl.Cl.N#Cc1ccc(Oc2cc(Cl)cc(Cl)c2)c(S(=O)(=O)N2CCNC(CN)C2)c1 (stereo not drawn) [Example 1-20] | 240 to 241 °C | > 500
N#Cc1ccc(Oc2cc(Cl)cc(Cl)c2)c(S(=O)(=O)N2CC[C@H](N3C[C@H](O)[C@@H](O)C3)C2)c1 [Example 1-18] | – | 100 to 500
N#Cc1ccc(Oc2cc(Cl)cc(Cl)c2)c(S(=O)(=O)N[C@@H]2C[C@H](O)[C@@H](O)C[C@@H]2N)c1 [Example 1-19] | – | > 500
